The text below walks through data of article PMC12373846, “Hemoglobin as a pseudoperoxidase and drug target for oxidative stress-related diseases” (Signal Transduction and Targeted Therapy, 2025).

One assay deals with SOD1^G93A mice. The assay is described as follows: Survival and rotarod, SOD1^G93A ALS mice. It counts as in vivo, mouse. Particulars: 1 and 10 mg/kg/day ad libitum. The procedure: SOD1^G93A mice (B6SJL-Tg(SOD1*G93A)1Gur/J) were purchased from Jackson Laboratory (strain number 002726) and used in the ALS mouse model. The mice were divided into four groups: Control, SOD1, and KDS12025 (1 and 10 mg/kg/day). Starting at 10 weeks of age, KDS12025 was administered via ad libitum drinking water at doses of 1 mg/kg/day and 10 mg/kg/day. The control and SOD1 groups received standard drinking water. Motor function was evaluated weekly via the rotarod performance test, and the ratio of running time was normalized to that of littermate controls to assess motor coordination and endurance over time. Survival of the mice was monitored for up to 24 weeks, and median survival times were calculated for each group.
(In general: Falling from the rotarod earlier than controls is read as motor impairment.)

The subject of the next assay is APP/PS1 mice. The assay is described as follows: Novel place recognition test, APP/PS1 mice. It counts as in vivo, mouse. The procedure:
For an animal model of AD, both sexes of 10- to 18-month-old APP/PS1 mice were maintained and used as previously described.[76],[77] To test the effects of novel H2O2-decomposing enhancers in the AD model, the mice were treated by i.p. injection with KDS12008 (3 mg/kg/day), KDS12017 (3 mg/kg/day), or KDS12025 (3 or 10 mg/kg/day) once per day for 1 or 2 weeks, depending on the experimental protocol. All drugs were dissolved in 200 μl of saline, and the amount of each drug was calculated on the basis of the weight (kg) of the mouse. Moreover, KDS12025 (3 mg/kg/day) was orally administered to the AD model for 2 weeks ad libitum.
Before the novel place recognition (NPR) test, the mice were subjected to sufficient handling and were concurrently habituated to an open field test (OFT) in a square chamber (40 × 40 × 40 cm). After habituation, the mice were placed in the open field with two identical objects positioned in the first and second quadrants of the cage. The mice were allowed to explore the objects freely for 10 min and then returned to their home cages for 1 h. To test spatial recognition memory, one of the two identical objects was placed in a novel place (quadrant), and the mice were re-entered into the open field chamber for 10 min. The discrimination index (DI) was calculated as the percentage of time spent on the novel place over the total time spent on both the novel and the familiar place. Frequencies were quantified via EthoVision XT software (Noldus, Netherlands).
The mice were deeply anesthetized with vaporized 1% isoflurane and placed into stereotaxic frames (RWD Life Science, China). Following an incision on the midline of the scalp, a hole was drilled into the skull above the hippocampus. AAV-GFAP104-GFP or AAV-GFAP104-DTR-GFP was bilaterally microinjected into the hippocampal CA1 region (AP, −2.0 mm; ML, ±1.5 mm; DV, −1.65 mm from the bregma). Diphtheria toxin (2 mg/ml) was administered for 16 days as previously described.[77] For shRNA knockdown, AAV-pSicoR-Hbβ-shRNA-mCherry or AAV-pSicoR-Sc-shRNA-mCherry was microinjected into the same coordinate system. A total of 0.8 µl of the virus was injected via a syringe pump (KD Scientific, USA). The injection procedures were implemented before 5 weeks of the experiments. For cell type-specific knockdown, AAV-pSico-Hbβ-shRNA-GFP or AAV-pSico-Sc-shRNA-GFP was combined with either AAV-CaMKII-Cre-mCherry for neuronal targeting or AAV-GFAP-Cre-mCherry for astrocyte targeting. The viruses were bilaterally injected into the hippocampus and substantia nigra via the same stereotaxic coordinates and injection procedures. All viruses used in this study were produced at the Institute for Basic Science virus facility (IBS virus facility, Korea). To investigate the effects of 0.1 mg/kg/day KDS12025, GiD mice were injected with diphtheria toxin (2 mg/ml) daily for 16 days. Concurrently, KDS12025 was administered ad libitum (0.1 mg/kg/day) during the same period.

The target of another assay is T1, mouse hemoglobin (mHb) (Mus musculus, UniProt P02088).
T1 construct: Mouse hemoglobin (Hb) purified from erythrocytes; purchased CUSABIO CSB-NP004901m; host or cells: erythrocytes
The assay is described as follows: ROS-Glo H2O2 assay with mouse hemoglobin. As to conditions: Fig. S1f; read-out: EC50, H2O2 decomposition with mouse hemoglobin (mHb). It counts as biochemical. The procedure: Mouse hemoglobin (Hb) purified from erythrocytes (Cat. CSB-NP004901m, CUSABIO) was used for the ROS-Glo H2O2 assay. KDS12025 was added in a dose-dependent manner to a reaction mixture containing mouse Hb and H2O2. The assay was performed according to the manufacturer’s protocol (Promega), and luminescence was measured using an iD5 plate reader. H2O2-decomposing activity was calculated as the percentage reduction in luminescence relative to controls. Assays with human Hb were conducted in parallel for comparison.

A further assay relates to C57BL/6 mice. The assay is described as follows: Blood H2O2 measurement after LPS. It counts as in vivo, mouse. Particulars: LPS 6 h + KDS12025 3 mg/kg i.p. The procedure: C57BL/6 mice were intraperitoneally (i.p.) injected with lipopolysaccharide (LPS) and sacrificed at 2, 6, and 24 h post-injection. Blood was collected from the heart using a syringe pre-treated with 0.5 M EGTA to prevent coagulation. Plasma was separated by centrifuging the collected blood at 1,500 × g for 10 min at 4 °C. H2O2 levels in the plasma were quantified using the Amplex Red assay according to the manufacturer’s instructions. The H2O2 levels peaked at 6 h post-LPS injection. Subsequently, KDS12025 (3 mg/kg/day) was intraperitoneally administered concurrently with LPS at the 6 h time point, and plasma H2O2 levels were measured to assess the effect of the compound.

Structures are written as SMILES.

T1 sequence (P02088 2-147 limits assumed): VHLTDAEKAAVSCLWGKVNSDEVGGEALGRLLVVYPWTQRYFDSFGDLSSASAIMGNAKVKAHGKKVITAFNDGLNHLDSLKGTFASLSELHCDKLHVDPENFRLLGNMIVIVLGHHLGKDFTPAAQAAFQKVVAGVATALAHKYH
T1 sequence (P01942 2-142 partner limits assumed): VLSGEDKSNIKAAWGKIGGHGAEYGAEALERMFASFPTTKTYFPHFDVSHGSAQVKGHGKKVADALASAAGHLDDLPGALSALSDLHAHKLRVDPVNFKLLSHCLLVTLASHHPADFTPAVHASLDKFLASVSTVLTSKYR

As usually defined, the EC50 is the midpoint of the concentration-response curve. Regarding `CNc1ccc(NCCc2ccccc2OC)cc1.Cl` [KDS12025, N^1-(2-methoxyphenethyl)-N^4-methylbenzene-1,4-diamine hydrochloride salt], in the assay with SOD1^G93A mice (rotarod), the “delay of motor impairment onset” value was “more than 7 weeks”. This molecule also registered a median survival in the assay on SOD1^G93A mice (untreated 140) of 168 days. For the same molecule, the NPR discrimination index result in the assay on APP/PS1 mice (APP+KDS12025 3 mg/kg/day ad libitum, Fig. 5n) is on record as “WT (0.2560±0.07604, n=6), APP (-0.0956±0.05233, n=5), APP+KDS12025 (ad libitum) (0.2057±0.04843, n=6) One-way ANOVA with Tukey's multiple comparisons test, F(2,14) = 8.997, p = 0.003 WT vs. APP, p = 0.004; WT vs. APP+KDS12025 (ad libitum), p = 0.82; APP vs. APP+KDS12025 (ad libitum), p = 0.01”; with APP/PS1 mice (APP+ScRNA+KDS12025, Fig. 6g), 0.46±0.09; with APP/PS1 mice (APP+shHbβ+KDS12025, Fig. 6g), -0.06±0.082; in the assay with APP/PS1 mice (APP+shHbβ::CaMKII+KDS12025, Fig. 6l) it was 0.24±0.08; in the assay on APP/PS1 mice (APP+shHbβ::GFAP+KDS12025, Fig. 6l) it was -0.04±0.059. Besides, the EC50 on mouse hemoglobin (mHb) came out at 24 nM. In addition, the “plasma H2O2 level (Fig. S20r)” value with C57BL/6 mice is “Control (0.3325±0.02161, n=6), LPS-6hrs (1.295±0.05323, n=6), LPS-6hrs+KDS (0.7847±0.08078, n=6) One-way ANOVA with Tukey's multiple comparisons test, F(2,15) = 70.74, p < 0.001 Control vs. LPS-6hrs, p < 0.001; Control vs. LPS-6hrs+KDS, p < 0.001; LPS-6hrs vs. LPS-6hrs+KDS, p < 0.001”.
